Results: PubChem BioAssay AID1278 (The Scripps Research Institute Molecular Screening Center, 2008)
The source made the active and inactive calls. The rule behind the calls is not given here.

Biological target: Neuropeptide Y receptor type 2 (Homo sapiens) (UniProt P49146)
Assay: IC50 for human NPY-Y2 blockade – cell-based, counter-screen for NPY-Y1 antagonist project, dose response (AID 1278)
Settings: NPY-Y2 expressing cells, antagonism, cell-based HTS

Sequence of Neuropeptide Y receptor type 2 (Homo sapiens) (P49146 whole entry, looked up): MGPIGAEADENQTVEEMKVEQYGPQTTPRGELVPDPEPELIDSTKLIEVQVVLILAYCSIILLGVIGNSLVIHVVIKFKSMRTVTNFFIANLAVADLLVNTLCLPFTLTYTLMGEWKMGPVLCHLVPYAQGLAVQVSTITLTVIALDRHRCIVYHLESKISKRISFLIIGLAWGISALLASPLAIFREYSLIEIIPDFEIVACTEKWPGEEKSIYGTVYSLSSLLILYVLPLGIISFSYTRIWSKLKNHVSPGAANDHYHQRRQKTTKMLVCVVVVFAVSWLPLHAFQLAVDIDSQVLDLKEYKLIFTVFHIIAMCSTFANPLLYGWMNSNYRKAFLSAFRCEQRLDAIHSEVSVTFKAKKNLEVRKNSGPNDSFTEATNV

IC50: < 35 µM (inactive)
Compound: CCc1cc(-c2[nH]ncc2-c2ccc3c(c2)OCO3)c(O)cc1O
